# Molecular target: T1, androgen receptor (AR) (Homo sapiens, UniProt P10275)
# T1 sequence (P10275 1-920): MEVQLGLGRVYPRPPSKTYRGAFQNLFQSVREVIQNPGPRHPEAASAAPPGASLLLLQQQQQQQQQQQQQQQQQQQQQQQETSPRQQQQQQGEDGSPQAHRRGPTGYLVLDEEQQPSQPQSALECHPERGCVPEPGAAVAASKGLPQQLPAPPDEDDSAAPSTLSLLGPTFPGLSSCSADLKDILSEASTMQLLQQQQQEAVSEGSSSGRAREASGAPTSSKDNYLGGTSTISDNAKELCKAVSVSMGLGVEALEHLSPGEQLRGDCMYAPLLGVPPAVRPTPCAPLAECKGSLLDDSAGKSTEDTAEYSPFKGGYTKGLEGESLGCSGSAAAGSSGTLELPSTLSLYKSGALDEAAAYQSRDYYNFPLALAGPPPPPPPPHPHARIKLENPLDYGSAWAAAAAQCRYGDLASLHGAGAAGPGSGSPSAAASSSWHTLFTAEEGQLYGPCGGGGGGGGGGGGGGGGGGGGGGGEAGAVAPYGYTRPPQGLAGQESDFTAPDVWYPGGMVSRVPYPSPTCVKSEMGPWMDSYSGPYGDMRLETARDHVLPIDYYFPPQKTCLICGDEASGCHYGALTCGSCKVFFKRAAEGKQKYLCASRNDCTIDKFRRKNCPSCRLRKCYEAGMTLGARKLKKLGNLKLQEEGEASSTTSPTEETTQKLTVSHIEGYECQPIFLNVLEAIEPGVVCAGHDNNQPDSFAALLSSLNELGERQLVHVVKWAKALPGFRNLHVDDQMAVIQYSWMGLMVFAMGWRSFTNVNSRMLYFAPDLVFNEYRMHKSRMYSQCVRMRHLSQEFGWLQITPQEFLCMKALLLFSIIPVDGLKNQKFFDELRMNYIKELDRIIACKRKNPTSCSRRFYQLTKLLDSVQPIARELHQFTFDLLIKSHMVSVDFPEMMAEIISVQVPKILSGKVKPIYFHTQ
# Test: Degradation of androgen receptor (AR) protein in VCaP cells by Western blot
# Type: cell-based
# Details: percentage of degraded AR at 100 nM, VCaP cells, 16 h
# Method: Determination of the Degradation Activity of the Compound on Androgen Receptor (AR) Protein by Western Blot
# 1) VCaP cells were subcultured in cell culture media, and then the cells in good growth condition were seeded in a 12-well plate at 1 ml/well (5×10^5 cells/well), and cultured overnight in a 37° C., 5% CO2 cell incubator. 2) The test compound was prepared into a 10 mM stock solution with dimethyl sulfoxide (DMSO). Prior to use, the solution was diluted 3 times with DMSO. […] of the diluted compound solution was added to the cell culture well (ensuring that the DMSO concentration in the culture system was 0.1%), and two wells were set for each concentration. The plate was gently shaken to mix. In addition, the experiment included negative control wells (containing equal amount of DMSO) and positive control wells. 3) After culturing 16 h. the cells were lysed with RIPA cell lysate, and the protein was extracted. The protein concentration was measured with BCA kit. 5-fold concentrated protein loading buffer was added, and after heated at 100° C. for 5 min. the sample was stored at −20° C. 4) for each well, 30 μg of protein was loaded on polyacrylamide gel for electrophoresis. 5) The protein was transferred from polyacrylamide gel to PVDF membrane, and then 5% skim milk was added to close for 1 h at room temperature. The first antibody (Androgen Receptor (D6F11) XP Rabbit mAb and Anti-β-Actin Rabbit mAb) was added and incubated overnight at 4° C. The membrane was washed with TBST solution three times. 10 min for each time. The secondary antibody (horseradish peroxidase labeled goat […]) was added and incubated at room temperature for 2 h, and then the membrane was washed with TBST solution three times. 10 min for each time.
# Finally, ECL chemiluminescence solution was added, and then photos were taken with automatic chemiluminescence instrument to collect pictures for analysis.
row,SMILES,inhibition at 0.1 µM [%]
1,"N#Cc1ccc(O[C@H]2CC[C@H](NC(=O)c3ccc(N4CCC(NC5CCN(c6ccc7c(c6)C(=O)N(C6CCC(=O)NC6=O)C7=O)CC5)CC4)nn3)CC2)cc1Cl (stereo partly shown) [Compound 118, N-((1r,4r)-4-(3-chloro-4-cyanophenoxy)cyclohexyl)-6-(4-((1-(2-(2,6-dioxopiperidin-3-yl)-1,3-dioxoisoindolin-5-yl)piperidine-4-yl)amino)piperidin-1-yl)pyridazine-3-amide]",25 to 49
2,N#Cc1ccc(O[C@H]2CC[C@H](NC(=O)c3ccc(N4CCC(O[C@@H]5CCN(c6ccc7c(c6)C(=O)N(C6CCC(=O)NC6=O)C7=O)C5)CC4)cc3)CC2)cc1Cl (stereo partly shown) [Compound 111],< 25
3,CC1(C)[C@H](NC(=O)c2ccc(N3CCN(C[C@@H]4[C@H]5CN(c6cc7c(cc6F)C(=O)N(C6CCC(=O)NC6=O)C7=O)C[C@@H]45)CC3)nn2)C(C)(C)[C@H]1Oc1ccc(C#N)c(Cl)c1 (stereo partly shown) [Compound 101],25 to 49
4,N#Cc1ccc(O[C@H]2CC[C@H](N3Cc4nc(NC5CCN(CC6CCN(c7ccc8c(c7)C(=O)N(C7CCC(=O)NC7=O)C8=O)CC6)CC5)ccc4C3=O)CC2)cc1Cl (stereo partly shown) [Compound 172],< 25
5,N#Cc1ccc(O[C@H]2CC[C@H](NC(=O)c3cnc(N4CCC(CN5CCC(Nc6ccc7c(c6)C(=O)N(C6CCC(=O)NC6=O)C7=O)CC5)CC4)cn3)CC2)cc1Cl (stereo partly shown) [Compound 146],> 80
6,"CC1(C)[C@H](NC(=O)c2ccc(N3CC4CN(C5CCN(c6cc7c(cc6F)C(=O)N(C6CCC(=O)NC6=O)C7=O)CC5)CC4C3)nn2)C(C)(C)[C@H]1Oc1ccc(C#N)c(Cl)c1 (stereo partly shown) [Compound 72, N-((1r,3r)-3-(3-chloro-4-cyanophenoxy)-2,2,4,4-tetramethylcyclobutyl)-6-(5-(1-(2-(2,6-dioxopiperidin-3-yl)-6-fluoro-1,3-dioxoisoindolin-5-yl)piperidine-4-yl)hexahydropyrrolo[3,4-c]pyrrol-2(1H)-yl)pyridazine-3-formamide]",25 to 49
7,"N#Cc1ccc(O[C@H]2CC[C@H](NC(=O)c3cnc(N4CCC5(CCN(C6CCN(c7cc8c(cc7F)C(=O)N(C7CCC(=O)NC7=O)C8=O)CC6)C5)C4)cn3)CC2)cc1Cl (stereo partly shown) [Compound 167, N-((1r,4r)-4-(3-chloro-4-cyanophenoxy)cyclohexyl)-5-(7-(1-(2-(2,6-dioxopiperidin-3-yl)-6-fluoro-1,3-dioxoisoindolin-5-yl)piperidine-4-yl)-2,7-diazaspiro[4.4]nonan-2-yl)pyrazine-2-carboxamide]",50 to 79
8,N#Cc1ccc(OC2CC3(CC(NC(=O)c4ccc(N5CCC(CN6CCN(c7ccc8c(c7)C(=O)N(C7CCC(=O)NC7=O)C8=O)CC6)CC5)nn4)C3)C2)cc1Cl (stereo not shown) [Compound 109],< 25
9,"N#Cc1ccc(O[C@H]2CC[C@H](NC(=O)c3ccc(N4CCC5(CCN(CC6CCN(c7cc8c(cc7F)C(=O)N(C7CCC(=O)NC7=O)C8=O)CC6)C5)C4)nn3)CC2)cc1Cl (stereo partly shown) [Compound 162, N-((1r,4r)-4-(3-chloro-4-cyanophenoxy)cyclohexyl)-6-(7-((1-(2-(2,6-dioxopiperidin-3-yl)-6-fluoro-1,3-dioxoisoindolin-5-yl)piperidine-4-yl)methyl)-2,7-diazaspiro[4.4]nonan-2-yl)pyridazine-3-formamide]",> 80
10,"CC1(C)[C@H](Oc2ccc(C#N)c(Cl)c2)C(C)(C)[C@H]1N1Cc2nc(C#CC3CCN(C4CN(c5ccc6c(c5)C(=O)N(C5CCC(=O)NC5=O)C6=O)C4)CC3)ccc2C1=O (stereo partly shown) [Compound 317, 2-Chloro-4-((1r,3r)-3-(2-((1-(1-(2-(2,6-dioxopiperidin-3-yl)-6-fluoro-1,3-dioxoisoindolin-5-yl)azitidin-3-yl)piperidine-4-yl)ethynyl)-5-oxo-5H-pyrrolino [3,4-b]pyridin-6(7H)-yl)-2,2,4,4-tetramethylcyclobutoxy)benzonitrile]",50 to 79

# Next, values leading:
row,inhibition at 0.1 µM [%],SMILES
1,> 80,"N#Cc1ccc(O[C@H]2CC[C@H](NC(=O)c3ccc(N4CC(N5CC6CN(c7cc8c(cc7F)C(=O)N(C7CCC(=O)NC7=O)C8=O)CC6C5)C4)nn3)CC2)cc1Cl (stereo partly shown) [Compound 223, N-((1r,4r)-4-(3-chloro-4-cyanophenoxy)cyclohexyl)-6-(3-(5-(2-(2,6-dioxopiperidin-3-yl)-6-fluoro-1,3-dioxoisoindolin-5-yl)hexahydropyrrolo[3,4-c]pyrrol-2(1H)-yl)azitidin-1-yl)pyridazine-3-carboxamide]"
2,50 to 79,"N#Cc1ccc(O[C@H]2CC[C@H](NC(=O)c3ccc(N4C[C@H]5C[C@@H](CN6CCN(c7cc8c(cc7F)C(=O)N(C7CCC(=O)NC7=O)C8=O)CC6)C[C@H]5C4)nn3)CC2)cc1Cl (stereo partly drawn) [Compound 224, N-((1r,4r)-4-(3-chloro-4-cyanophenoxy)cyclohexyl)-6-((3aR,5R,6aS)-5-((4-(2-(2,6-dioxopiperidin-3-yl)-6-fluoro-1,3-dioxoisoindolin-5-yl)piperazin-1-yl)methyl)hexahydrocyclopenta[c]pyrrole-2(1H)-yl)pyridazine-3-formamide]"
3,25 to 49,"N#Cc1ccc(O[C@H]2CC[C@H](NC(=O)c3ccc(N4C[C@@H]5[C@@H](CN6CCN(c7ccc8c(c7)C(=O)N(C7CCC(=O)NC7=O)C8=O)CC6)[C@@H]5C4)nn3)CC2)cc1Cl (stereo partly drawn) [Compound 179, N-((1r,4R)-4-(3-chloro-4-cyanophenoxy)cyclohexyl)-6-((1R,5S,6S)-6-((4-(2-(2,6-dioxopiperidin-3-yl)-1,3-dioxoisoindolin-5-yl)piperazin-1-yl)methyl)-3-azabicyclo[3.1.0]hexan-3-yl)pyridazine-3-formamide]"
4,> 80,CC1(C)[C@H](Oc2ccc(C#N)c(Cl)c2)C(C)(C)[C@H]1N1Cc2nc(C#CC3CCN(CC4CN(c5cc6c(cc5F)C(=O)N(C5CCC(=O)NC5=O)C6=O)C4)CC3)ccc2C1=O (stereo partly shown) [Compound 334]
5,50 to 79,"N#Cc1ccc(O[C@H]2CC[C@H](NC(=O)c3cnc(N4CC(N5CC6CN(c7cc8c(cc7F)C(=O)N(C7CCC(=O)NC7=O)C8=O)CC6C5)C4)cn3)CC2)cc1Cl (stereo partly shown) [Compound 225, N-((1r,4r)-4-(3-chloro-4-cyanophenoxy)cyclohexyl)-5-(3-(5-(2-(2,6-dioxopiperidin-3-yl)-6-fluoro-1,3-dioxoisoindolin-5-yl)hexahydropyrrolo[3,4-c]pyrrol-2(1H)-yl)azitidin-1-yl)pyrazine-2-carboxamide]"
6,50 to 79,CC1(C)[C@H](Oc2ccc(C#N)c(Cl)c2)C(C)(C)[C@H]1N1Cc2nc(C#CC3CCN(CC4CCN(c5cc6c(cc5F)C(=O)N(C5CCC(=O)NC5=O)C6=O)CC4)CC3)ccc2C1=O (stereo partly shown) [Compound 333]
7,50 to 79,CC1(C)[C@H](Oc2ccc(C#N)c(Cl)c2)C(C)(C)[C@H]1N1Cc2nc(C#CC3CC(NC4CCN(c5cc6c(cc5F)C(=O)N(C5CCC(=O)NC5=O)C6=O)CC4)C3)ccc2C1=O (stereo partly shown) [Compound 329]
8,50 to 79,"N#Cc1ccc(O[C@H]2CC[C@H](NC(=O)c3cnc(N4C[C@H]5C[C@@H](N6CCN(c7cc8c(cc7F)C(=O)N(C7CCC(=O)NC7=O)C8=O)CC6)C[C@H]5C4)cn3)CC2)cc1Cl (stereo partly drawn) [Compound 293, N-((1r,4r)-4-(3-chloro-4-cyanophenoxy)cyclohexyl)-5-((3aR,5R,6aS)-5-(4-(2-(2,6-dioxopiperidin-3-yl)-6-fluoro-1,3-dioxoisoindolin-5-yl)piperazin-1-yl)hexahydrocyclopenta[c]pyrrole-2(1H)-yl)pyrazine-2-carboxamide]"
9,> 80,"N#Cc1ccc(O[C@H]2CC[C@H](NC(=O)c3cnc(N4CCC(N5CC6(CCN(c7ccc8c(c7)C(=O)N(C7CCC(=O)NC7=O)C8=O)CC6)C5)CC4)cn3)CC2)cc1Cl (stereo partly shown) [Compound 229, N-((1r,4r)-4-(3-chloro-4-cyanophenoxy)cyclohexyl)-5-(4-(7-(2-(2,6-dioxopiperidin-3-yl)-1,3-dioxoisoindolin-5-yl)-2,7-diazaspiro[3.5]nonan-2-yl)piperidin-1-yl)pyrazine-2-carboxamide]"

# From US20230091225A1, “Bifunctional chimeric heterocyclic compounds for targeted degradation of androgen receptors and use thereof” (HINOVA PHARMACEUTICALS INC., priority 2019, published 2023)
